Measurements from PubChem BioAssay (NCI).
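Interpolation was linear, between the two tested concentrations surrounding the appropriate level; five concentrations were tested over 48 hours in 96-well plates. The concentration for 50% growth inhibition is given as GI50. Definition used: TGI = concentration required for complete inhibition of growth.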

Columns and labels:
Assay in all cases: NCI tumour cell line growth inhibition, 48 h
A498 renal = system: A498 renal
ACHN renal = system: ACHN renal
SF-295 CNS = system: SF-295 CNS
T-47D breast = system: T-47D breast
K-562 leukemia = system: K-562 leukemia
MALME-3M melanoma = system: MALME-3M melanoma
OVCAR-8 ovarian = system: OVCAR-8 ovarian
OVCAR-4 ovarian = system: OVCAR-4 ovarian
RXF 393 renal = system: RXF 393 renal
SK-MEL-5 melanoma = system: SK-MEL-5 melanoma
HCT-15 colon = system: HCT-15 colon
HS 578T breast = system: HS 578T breast
U251 CNS = system: U251 CNS
786-0 renal = system: 786-0 renal
A549 NSCLC = system: A549 NSCLC
IGROV1 ovarian = system: IGROV1 ovarian
KM12 colon = system: KM12 colon
HL-60(TB) leukemia = system: HL-60(TB) leukemia
SR leukemia = system: SR leukemia
MOLT-4 leukemia = system: MOLT-4 leukemia
NCI-H226 lung = system: NCI-H226 lung
UO-31 renal = system: UO-31 renal
NCI/ADR-RES ovarian = system: NCI/ADR-RES ovarian
OVCAR-5 ovarian = system: OVCAR-5 ovarian
DU-145 prostate = system: DU-145 prostate
SN12C renal = system: SN12C renal
CAKI-1 renal = system: CAKI-1 renal
NCI-H23 lung = system: NCI-H23 lung
SW-620 colon = system: SW-620 colon
OVCAR-3 ovarian = system: OVCAR-3 ovarian
HCT-116 colon = system: HCT-116 colon
HT29 colon = system: HT29 colon
MDA-MB-435 = system: MDA-MB-435
HCC-2998 colon = system: HCC-2998 colon
LOX IMVI melanoma = system: LOX IMVI melanoma
BT-549 breast = system: BT-549 breast
M14 melanoma = system: M14 melanoma
MCF7 breast = system: MCF7 breast
CCRF-CEM leukemia = system: CCRF-CEM leukemia
MDA-N = system: MDA-N
RPMI-8226 leukemia = system: RPMI-8226 leukemia
MDA-MB-231 breast = system: MDA-MB-231 breast
SNB-75 CNS = system: SNB-75 CNS
HOP-92 NSCLC = system: HOP-92 NSCLC
COLO 205 colon = system: COLO 205 colon
UACC-257 melanoma = system: UACC-257 melanoma
SK-MEL-28 melanoma = system: SK-MEL-28 melanoma
SNB-19 CNS = system: SNB-19 CNS
NCI-H522 lung = system: NCI-H522 lung
EKVX NSCLC = system: EKVX NSCLC
NCI-H460 lung = system: NCI-H460 lung
UACC-62 melanoma = system: UACC-62 melanoma
HOP-62 NSCLC = system: HOP-62 NSCLC
SF-268 CNS = system: SF-268 CNS
SK-OV-3 ovarian = system: SK-OV-3 ovarian
SK-MEL-2 melanoma = system: SK-MEL-2 melanoma
PC-3 prostate = system: PC-3 prostate
TK-10 renal = system: TK-10 renal
SF-539 CNS = system: SF-539 CNS

## CC(=O)OCC1OC(O[C@@H]2C[C@H]3C(C)(C)[C@H](OC(C)=O)CC[C@]3(C)[C@H]3CCC4=C([C@@H](C)C[C@@H](O)[C@H](O)C(C)(C)O)CC[C@@]4(C)[C@@]32C)C(O)C(O)C1O (stereo not given in full)
A498 renal
  GI50: 17.2 µM
  TGI: 31.1 µM
ACHN renal
  GI50: 17.8 µM
  TGI: 31.9 µM
SF-295 CNS
  GI50: 17.5 µM
  TGI: 31.6 µM
T-47D breast
  GI50: 16.5 µM
  TGI: 30.3 µM
K-562 leukemia
  GI50: 12.7 µM
  TGI: 32.5 µM
MALME-3M melanoma
  GI50: 16.5 µM
  TGI: 30.4 µM
OVCAR-8 ovarian
  GI50: 15.9 µM
  TGI: 29.6 µM
OVCAR-4 ovarian
  GI50: 17 µM
  TGI: 31.1 µM
RXF 393 renal
  GI50: 14.8 µM
  TGI: 28 µM
SK-MEL-5 melanoma
  GI50: 16.2 µM
  TGI: 29.7 µM
HCT-15 colon
  GI50: 17.1 µM
  TGI: 30.8 µM
HS 578T breast
  GI50: 15.2 µM
  TGI: 32.8 µM
U251 CNS
  TGI: 28 µM
786-0 renal
  GI50: 18.2 µM
  TGI: 32.7 µM
A549 NSCLC
  GI50: 19 µM
  TGI: 33.3 µM
IGROV1 ovarian
  GI50: 16.3 µM
  TGI: 30.1 µM
KM12 colon
  GI50: 22.6 µM
  TGI: 37.1 µM
HL-60(TB) leukemia
  GI50: 13 µM
  TGI: 28.8 µM
SR leukemia
  GI50: 12.2 µM
  TGI: 27.8 µM
MOLT-4 leukemia
  GI50: 13.3 µM
  TGI: 35.3 µM
NCI-H226 lung
  GI50: 17.3 µM
  TGI: 32 µM
UO-31 renal
  GI50: 18.4 µM
  TGI: 32.7 µM
NCI/ADR-RES ovarian
  GI50: 20.4 µM
  TGI: 43.5 µM
OVCAR-5 ovarian
  GI50: 17.7 µM
  TGI: 31.6 µM
DU-145 prostate
  GI50: 17.8 µM
  TGI: 31.8 µM
SN12C renal
  GI50: 16.4 µM
  TGI: 30 µM
CAKI-1 renal
  GI50: 15.6 µM
  TGI: 28.9 µM
NCI-H23 lung
  GI50: 16.7 µM
  TGI: 30.4 µM
SW-620 colon
  GI50: 16.8 µM
  TGI: 30.7 µM
OVCAR-3 ovarian
  GI50: 14.4 µM
  TGI: 27.8 µM
HCT-116 colon
  GI50: 14.2 µM
  TGI: 27.2 µM
HT29 colon
  GI50: 16.6 µM
  TGI: 30.2 µM
MDA-MB-435
  GI50: 16 µM
  TGI: 29.5 µM
HCC-2998 colon
  GI50: 12 µM
  TGI: 25.2 µM
LOX IMVI melanoma
  GI50: 12.5 µM
  TGI: 25 µM
BT-549 breast
  GI50: 15.4 µM
  TGI: 28.7 µM
M14 melanoma
  GI50: 17.3 µM
  TGI: 31.4 µM
MCF7 breast
  GI50: 2.89 µM
  TGI: 11.9 µM
CCRF-CEM leukemia
  GI50: 15.9 µM
  TGI: 34.1 µM
MDA-N
  GI50: 16.8 µM
  TGI: 30.5 µM
RPMI-8226 leukemia
  GI50: 10.5 µM
  TGI: 30.1 µM
MDA-MB-231 breast
  GI50: 11.6 µM
  TGI: 23.8 µM
SNB-75 CNS
  GI50: 13.2 µM
  TGI: 26 µM
HOP-92 NSCLC
  GI50: 14.6 µM
  TGI: 27.9 µM
COLO 205 colon
  GI50: 16 µM
  TGI: 30.2 µM
UACC-257 melanoma
  GI50: 16.3 µM
  TGI: 30.3 µM
SK-MEL-28 melanoma
  GI50: 17 µM
  TGI: 30.9 µM
SNB-19 CNS
  GI50: 14.3 µM
  TGI: 27.7 µM
NCI-H522 lung
  GI50: 13.2 µM
  TGI: 27.2 µM
EKVX NSCLC
  GI50: 16.9 µM
  TGI: 31 µM
NCI-H460 lung
  GI50: 16 µM
  TGI: 29.8 µM
UACC-62 melanoma
  GI50: 12.6 µM
  TGI: 25.1 µM
HOP-62 NSCLC
  GI50: 16.2 µM
  TGI: 30 µM
SF-268 CNS
  TGI: 27.7 µM
SK-OV-3 ovarian
  GI50: 17.9 µM
  TGI: 32.1 µM
SK-MEL-2 melanoma
  GI50: 16.3 µM
  TGI: 30.3 µM
PC-3 prostate
  GI50: 14.5 µM
  TGI: 27.9 µM

## C[C@]12OC[C@H](c3ccccc3)N1C(=O)C1[C@H]2CC12SCCS2 (stereo not given in full)
A498 renal
  TGI: > 100 µM
ACHN renal
  TGI: > 100 µM
SF-295 CNS
  TGI: > 100 µM
T-47D breast
  TGI: > 100 µM
K-562 leukemia
  TGI: > 100 µM
MALME-3M melanoma
  TGI: > 100 µM
OVCAR-8 ovarian
  TGI: > 100 µM
OVCAR-4 ovarian
  TGI: > 100 µM
RXF 393 renal
  TGI: > 100 µM
SK-MEL-5 melanoma
  TGI: > 100 µM
HCT-15 colon
  TGI: > 100 µM
HS 578T breast
  TGI: > 100 µM
U251 CNS
  TGI: > 100 µM
786-0 renal
  TGI: > 100 µM
A549 NSCLC
  TGI: > 100 µM
IGROV1 ovarian
  TGI: > 100 µM
KM12 colon
  TGI: > 100 µM
SR leukemia
  TGI: > 100 µM
MOLT-4 leukemia
  TGI: > 100 µM
NCI-H226 lung
  TGI: > 100 µM
UO-31 renal
  TGI: > 100 µM
NCI/ADR-RES ovarian
  TGI: > 100 µM
OVCAR-5 ovarian
  TGI: > 100 µM
DU-145 prostate
  TGI: > 100 µM
SN12C renal
  TGI: > 100 µM
CAKI-1 renal
  TGI: > 100 µM
NCI-H23 lung
  TGI: > 100 µM
SW-620 colon
  TGI: > 100 µM
OVCAR-3 ovarian
  TGI: > 100 µM
HCT-116 colon
  TGI: > 100 µM
HT29 colon
  TGI: > 100 µM
MDA-MB-435
  TGI: > 100 µM
HCC-2998 colon
  TGI: > 100 µM
BT-549 breast
  TGI: > 100 µM
M14 melanoma
  TGI: > 100 µM
MCF7 breast
  TGI: > 100 µM
CCRF-CEM leukemia
  TGI: > 100 µM
MDA-N
  TGI: > 100 µM
RPMI-8226 leukemia
  TGI: > 100 µM
MDA-MB-231 breast
  TGI: > 100 µM
SNB-75 CNS
  TGI: > 100 µM
HOP-92 NSCLC
  TGI: > 100 µM
COLO 205 colon
  TGI: > 100 µM
UACC-257 melanoma
  TGI: > 100 µM
SK-MEL-28 melanoma
  TGI: > 100 µM
SNB-19 CNS
  TGI: > 100 µM
NCI-H522 lung
  TGI: > 100 µM
EKVX NSCLC
  TGI: > 100 µM
NCI-H460 lung
  TGI: > 100 µM
UACC-62 melanoma
  TGI: > 100 µM
HOP-62 NSCLC
  TGI: > 100 µM
TK-10 renal
  TGI: > 100 µM
SF-268 CNS
  TGI: > 100 µM
SF-539 CNS
  TGI: > 100 µM
SK-OV-3 ovarian
  TGI: > 100 µM
SK-MEL-2 melanoma
  TGI: > 100 µM
PC-3 prostate
  TGI: > 100 µM

## CC(=O)OCC1OC(N2C(=O)/C(=C\c3ccc(Cl)cc3)C(N)=Nc3ccccc32)C(OC(C)=O)C(OC(C)=O)C1OC(C)=O (stereo not given)
A498 renal
  TGI: > 100 µM
ACHN renal
  TGI: 45.7 µM
SF-295 CNS
  TGI: > 100 µM
T-47D breast
  TGI: 39.1 µM
K-562 leukemia
  TGI: 33.1 µM
MALME-3M melanoma
  TGI: 68.4 µM
OVCAR-8 ovarian
  TGI: 26.7 µM
OVCAR-4 ovarian
  TGI: 66.4 µM
RXF 393 renal
  TGI: 27.9 µM
SK-MEL-5 melanoma
  TGI: 27.1 µM
HCT-15 colon
  TGI: 59.2 µM
HS 578T breast
  TGI: > 100 µM
U251 CNS
  TGI: 30.5 µM
786-0 renal
  TGI: 43.6 µM
A549 NSCLC
  TGI: > 100 µM
IGROV1 ovarian
  TGI: 63.4 µM
KM12 colon
  TGI: 39.5 µM
HL-60(TB) leukemia
  TGI: > 100 µM
SR leukemia
  TGI: 51.1 µM
MOLT-4 leukemia
  TGI: 27 µM
UO-31 renal
  TGI: 58.8 µM
NCI/ADR-RES ovarian
  TGI: > 100 µM
OVCAR-5 ovarian
  TGI: > 100 µM
DU-145 prostate
  TGI: > 100 µM
SN12C renal
  TGI: > 100 µM
CAKI-1 renal
  TGI: > 100 µM
NCI-H23 lung
  TGI: 68.7 µM
SW-620 colon
  TGI: > 100 µM
OVCAR-3 ovarian
  TGI: 32.6 µM
HCT-116 colon
  TGI: 30.2 µM
HT29 colon
  TGI: 70.2 µM
MDA-MB-435
  TGI: 30.7 µM
HCC-2998 colon
  TGI: 36.5 µM
LOX IMVI melanoma
  TGI: 39.2 µM
BT-549 breast
  TGI: > 100 µM
M14 melanoma
  TGI: 37.4 µM
MCF7 breast
  TGI: 33.1 µM
MDA-N
  TGI: 37.9 µM
RPMI-8226 leukemia
  TGI: 13.8 µM
MDA-MB-231 breast
  TGI: 49.9 µM
SNB-75 CNS
  TGI: 74.4 µM
HOP-92 NSCLC
  TGI: 45.2 µM
COLO 205 colon
  TGI: 29.8 µM
UACC-257 melanoma
  TGI: 66.6 µM
SK-MEL-28 melanoma
  TGI: 71.2 µM
SNB-19 CNS
  TGI: > 100 µM
EKVX NSCLC
  TGI: > 100 µM
NCI-H460 lung
  TGI: > 100 µM
UACC-62 melanoma
  TGI: > 100 µM
HOP-62 NSCLC
  TGI: 85.7 µM
TK-10 renal
  TGI: 88.2 µM
SF-268 CNS
  TGI: 42 µM
SF-539 CNS
  TGI: 40.8 µM
SK-OV-3 ovarian
  TGI: > 100 µM
SK-MEL-2 melanoma
  TGI: 74.6 µM
PC-3 prostate
  TGI: 59.8 µM
